≈ marks a conversion by molar mass, not a printed value. Where a name gives a salt, the structure may show the parent alone. Read-outs that look alike come from different tables or passages of the source.
Tests used:
[1] = Stability in human plasma (PS), LC-MS/MS; format: in vitro ADME; conditions: for half-life: read-out: Human PS t1/2
Procedure: (§1) Metabolism of compound(s) to release (+)-α-DTHBZ was determined by the half-life (t1/2) and intrinsic clearance (CIint) in human plasma (PS) and liver microsomes (LM) using tandem mass spectrometry (LC-MS/MS).

[2] = Metabolic stability in human liver microsomes (LM), LC-MS/MS (first table); format: in vitro ADME; conditions: for microsomal CLint: Table 1, read-out: Human LM CLint (μL/min/mg protein); for half-life: Table 1, read-out: Human LM t1/2
Procedure: as §1

[3] = LM stability assay, human (second table); format: in vitro ADME; conditions: human liver microsomes, Table 2; for microsomal CLint: read-out: LM stability assay Human Clint (μL/min/mg protein); for half-life: read-out: LM stability assay Human t1/2
Procedure: Metabolism of compound(s) to release (+)-α-DTHBZ was determined by the half-life (t1/2) and intrinsic clearance (CIint) in human liver microsomes (LM) using tandem mass spectrometry (LC-MS/MS).

[4] = Kinetic solubility in PBS buffer; format: physicochemical; conditions: aqueous buffer, kinetic from dmso stock, compound suspended at 300 μM, 25° C.
Procedure: Kinetic solubility was determined by suspending compound at 300 μM at pH 1.2 and 7.4 in PBS buffer. The suspension was equilibrated by shaking at 25° C. at 1100 RPM for 2 hours and then pH was measured following filtration. The filtrate was then diluted by an appropriate factor (e.g. 100-fold). Quantitation was done by LC-MS/MS with reference to a standard solution.

[5] = Heps. stability assay, human cryopreserved hepatocytes; format: in vitro ADME; conditions: for microsomal CLint: read-out: Heps. stability assay Human Clint (μL/min/mg protein); for half-life: read-out: Heps. stability assay Human t1/2
Procedure: Metabolism of compound(s) to release (+)-α-DTHBZ was determined by the half-life (t1/2) and intrinsic clearance (CIint) in human cryopreserved hepatocytes using tandem mass spectrometry (LC-MS/MS).

[6] = Permeability in Caco-2 cell monolayer; format: in vitro ADME; conditions: human; for efflux ratio: Caco-2; for Papp A→B: Caco-2, apical to basolateral; for Papp B→A: Caco-2, basolateral to apical
Procedure: The intestinal permeability of compound(s) was evaluated in Caco-2 cells by assessing transport across the cell monolayer in the apical to basolateral (A-B) direction. Active efflux was also assessed by measuring transport in the basolateral to apical (BA) direction which enables evaluation of the efflux ratio. Analysis of transport is quantified by tandem mass spectrometry (LC-MS/MS).

[7] = pH 1.2, PBS buffer, read-out: Kinetic Solubility pH = 1.2 (300 μM)
[8] = pH 7.4, PBS buffer, read-out: Kinetic Solubility pH = 7.4 (300 μM)

microsomal CLint [2] [µL/min/mg] | half-life [2] [h] | half-life [1] [h] | further results | Compound
3.24 | 6.91 |  | Human PS t1/2 (min) [1]: ∞ | COc1cc2c(cc1OC)[C@@H]1C[C@H](OC(=O)C(=O)O)[C@@H](CC(C)C)CN1CC2 (stereo in doubt) [Example 1, (2S,3S,11bS)-9,10-dimethoxy-3-(2-methylpropyl)-1H,2H,3H,4H,6H,7H,11bH-pyrido[2,1-a]isoquinolin-2-yl hydrogen oxalate]
 |  | 12.7 | Human LM t1/2 (min) ([2]; Table 1): ∞ | COc1cc2c(cc1OC)[C@@H]1C[C@H](OC(=O)/C=C/C(=O)O)[C@@H](CC(C)C)CN1CC2 (stereo in doubt) [Example 3, (2E)-4-[[(2S,3S,11bS)-9,10-dimethoxy-3-(2-methylpropyl)-1H,2H,3H,4H,6H,7H,11bH-pyrido[2,1-a]isoquinolin-2-yl]oxy]-4-oxobut-2-enoic acid]
< 3.4 | > 3.39 | 55 |  | COc1cc2c(cc1OC)[C@H]1C[C@@H](OC(=O)/C=C\C(=O)O)[C@H](CC(C)C)CN1CC2 [Example 4, (2Z)-4-[[(2R,3R,11bR)-9,10-dimethoxy-3-(2-methylpropyl)-1H,2H,3H,4H,6H,7H,11bH-pyrido[2,1-a]isoquinolin-2-yl]oxy]-4-oxobut-2-enoic acid]
3.16 | 3.89 |  | microsomal CLint [3]: 1.04 µL/min/mg; half-life [3]: 56.8 h; solubility kinetic at 2 h [4, 7]: 276 µM (≈ 131 µg/mL); solubility kinetic at 2 h [4, 8]: 306 µM (≈ 146 µg/mL); Human PS t1/2 (min) [1]: ∞; microsomal CLint [5]: 50.7 µL/min/mg; half-life [5]: 0.456 h; efflux ratio [6]: 0.98; Papp A→B [6]: 224 nm/s; Papp B→A [6]: 220 nm/s | COc1cc2c(cc1OC)[C@H]1C[C@@H](OC(=O)CCCCCCC(=O)O)[C@H](CC(C)C)CN1CC2 [Example 5, 8-[[(2R,3R,11bR)-9,10-dimethoxy-3-(2-methylpropyl)-1H,2H,3H,4H,6H,7H,11bH-pyrido[2,1-a]isoquinolin-2-yl]oxy]-8-oxooctanoic acid]
65.8 | 0.176 | > 13.5 | microsomal CLint [3]: 922 µL/min/mg; half-life [3]: 0.0125 h; solubility kinetic at 2 h [4, 7]: 311 µM (≈ 143 µg/mL); solubility kinetic at 2 h [4, 8]: 5.84 µM (≈ 2.7 µg/mL); microsomal CLint [5]: 282 µL/min/mg; half-life [5]: 0.082 h; efflux ratio [6]: 0.84; Papp A→B [6]: 17.8 nm/s; Papp B→A [6]: 15 nm/s | COc1cc2c(cc1OC)[C@H]1C[C@@H](OC(=O)CCC(=O)OC(C)C)[C@H](CC(C)C)CN1CC2 [Example 7, (2R,3R,11bR)-9,10-dimethoxy-3-(2-methylpropyl)-1H,2H,3H,4H,6H,7H,11bH-pyrido[2,1-a]isoquinolin-2-yl 1-isopropyl butanedioate]
98 | 0.118 | > 11.8 |  | COc1cc2c(cc1OC)[C@H]1C[C@@H](OC(=O)/C=C/C(=O)OC(C)C)[C@H](CC(C)C)CN1CC2 [Example 8, (2R,3R,11bR)-9,10-dimethoxy-3-(2-methylpropyl)-1H,2H,3H,4H,6H,7H,11bH-pyrido[2,1-a]isoquinolin-2-yl 1-isopropyl (2E)-but-2-enedioate]
16.3 | 0.708 |  | microsomal CLint [3]: 613 µL/min/mg; half-life [3]: 0.0188 h; solubility kinetic at 2 h [4, 7]: 292 µM (≈ 149 µg/mL); solubility kinetic at 2 h [4, 8]: 0.0018 µM (≈ 0.000919 µg/mL); Human PS t1/2 (min) [1]: ∞; microsomal CLint [5]: 121 µL/min/mg; half-life [5]: 0.191 h; efflux ratio [6]: 0.95; Papp A→B [6]: 2.02 nm/s; Papp B→A [6]: 1.91 nm/s | COc1cc2c(cc1OC)[C@H]1C[C@@H](OC(=O)c3cncc(C(=O)OC(C)C)c3)[C@H](CC(C)C)CN1CC2 [Example 9, 3-((2R,3R,11bR)-3-isobutyl-9,10-dimethoxy-1,3,4,6,7,11b-hexahydro-2H-pyrido[2,1-a]isoquinolin-2-yl) 5-isopropyl pyridine-3,5-dicarboxylate]
104 | 0.111 | > 3770 |  | COc1cc2c(cc1OC)[C@H]1C[C@@H](OC(=O)/C=C\C(=O)OC(C)C)[C@H](CC(C)C)CN1CC2 [Example 10, (2R,3R,11bR)-9,10-dimethoxy-3-(2-methylpropyl)-1H,2H,3H,4H,6H,7H,11bH-pyrido[2,1-a]isoquinolin-2-yl 1-isopropyl (2Z)-but-2-enedioate]
4.24 | 2.95 | 0.225 |  | COc1cc2c(cc1OC)[C@H]1C[C@@H](OC(=O)/C=C/C(=O)N[C@H](C(=O)O)C(C)C)[C@H](CC(C)C)CN1CC2 [Example 11, (2S)-2-[(2E)-4-[[(2R,3R,11bR)-9,10-dimethoxy-3-(2-methylpropyl)-1H,2H,3H,4H,6H,7H,11bH-pyrido[2,1-a]isoquinolin-2-yl]oxy]-4-oxobut-2-enamido]-3-methylbutanoic acid]
2.91 | 4.16 | 0.2 |  | COc1cc2c(cc1OC)[C@H]1C[C@@H](OC(=O)/C=C\C(=O)N[C@@H](Cc3ccccc3)C(=O)O)[C@H](CC(C)C)CN1CC2 [Example 14, (2S)-2-[(2Z)-4-[[(2R,3R,11bR)-9,10-dimethoxy-3-(2-methylpropyl)-1H,2H,3H,4H,6H,7H,11bH-pyrido[2,1-a]isoquinolin-2-yl]oxy]-4-oxobut-2-enamido]-3-phenylpropanoic acid]
1.11 | 20.8 | > 11 |  | COc1cc2c(cc1OC)[C@H]1C[C@@H](OC(=O)/C=C/C(=O)O[C@@H]3C[C@@H]4c5cc(OC)c(OC)cc5CCN4C[C@H]3CC(C)C)[C@H](CC(C)C)CN1CC2 [Example 18, bis[(2R,3R,11bR)-9,10-dimethoxy-3-(2-methylpropyl)-1H,2H,3H,4H,6H,7H,11bH-pyrido[2,1-a]isoquinolin-2-yl] (2E)-but-2-enedioate]
0.84 | > 13.7 | 134 |  | COc1cc2c(cc1OC)[C@H]1C[C@@H](OC(=O)/C=C\C(=O)O[C@@H]3C[C@@H]4c5cc(OC)c(OC)cc5CCN4C[C@H]3CC(C)C)[C@H](CC(C)C)CN1CC2 [Example 19, bis[(2R,3R,11bR)-9,10-dimethoxy-3-(2-methylpropyl)-1H,2H,3H,4H,6H,7H,11bH-pyrido[2,1-a]isoquinolin-2-yl] (2Z)-but-2-enedioate]
3.83 | 3.2 | 1.35 |  | COc1cc2c(cc1OC)[C@H]1C[C@@H](OC(=O)C(=O)O[C@@H]3C[C@@H]4c5cc(OC)c(OC)cc5CCN4C[C@H]3CC(C)C)[C@H](CC(C)C)CN1CC2 [Example 20, Bis[(2R,3R,11bR)-9,10-dimethoxy-3-(2-methylpropyl)-1H,2H,3H,4H,6H,7H,11bH-pyrido[2,1-a]isoquinolin-2-yl] oxalate]
1.67 | 8.05 | > 341 |  | CCNC(=O)O[C@@H]1C[C@@H]2c3cc(OC)c(OC)cc3CCN2C[C@H]1CC(C)C [Example 21, (2R,3R,11bR)-9,10-dimethoxy-3-(2-methylpropyl)-1H,2H,3H,4H,6H,7H,11bH-pyrido[2,1-a]isoquinolin-2-yl N-ethylcarbamate]
5.15 | 2.31 | > 65.5 |  | COc1cc2c(cc1OC)[C@H]1C[C@@H](OC(=O)NC(C)C)[C@H](CC(C)C)CN1CC2 [Example 22, (2R,3R,11bR)-9,10-dimethoxy-3-(2-methylpropyl)-1H,2H,3H,4H,6H,7H,11bH-pyrido[2,1-a]isoquinolin-2-yl N-isopropylcarbamate]
 |  | 1.42 |  | CCC(=O)OCOC(=O)O[C@@H]1C[C@@H]2c3cc(OC)c(OC)cc3CCN2C[C@H]1CC(C)C [Example 24, [([[(2R,3R,11bR)-9,10-dimethoxy-3-(2-methylpropyl)-1H,2H,3H,4H,6H,7H,11bH-pyrido[2,1-a]isoquinolin-2-yl]oxy]carbonyl)oxy]methylpropanoate]
 |  | 1.98 |  | COc1cc2c(cc1OC)[C@H]1C[C@@H](OC(=O)OCOC(=O)C(C)C)[C@H](CC(C)C)CN1CC2 [Example 25, [([[(2R,3R,11bR)-9,10-dimethoxy-3-(2-methylpropyl)-1H,2H,3H,4H,6H,7H,11bH-pyrido[2,1-a]isoquinolin-2-yl]oxy]carbonyl)oxy]methyl 2-methylpropanoate]
1380 | 0.00833 | 1.39 |  | COc1cc2c(cc1OC)[C@H]1C[C@@H](OC(=O)OCOC(=O)CC(C)C)[C@H](CC(C)C)CN1CC2 [Example 26, [([[(2R,3R,11bR)-9,10-dimethoxy-3-(2-methylpropyl)-1H,2H,3H,4H,6H,7H,11bH-pyrido[2,1-a]isoquinolin-2-yl]oxy]carbonyl)oxy]methyl 3-methylbutanoate]

Reference: patent US20210087191A1, “SUBSTITUTED 3-ISOBUTYL-9,10-DIMETHOXY-1,3,4,6,7,11B-HEXAHYDRO-2H-PYRIDO[2,1-a]ISOQUINOLIN-2-OL COMPOUNDS, THEIR [sequence], AND USE THEREOF” (DISPERSOL TECHNOLOGIES, LLC, priority 2020, published 2021)
